In patent US20240000084A1, “ANTI[…], ANTIBACTERIAL AGENT, ANTIVIRAL AGENT, PATHOGEN DISPOSAL DEVICE, ANTI[…] PRODUCTION METHOD, ANTIBACTERIAL TREATMENT METHOD, VIRUS INACTIVATION METHOD, AND PATHOGEN DISPOSAL METHOD” (ACENET INC., priority 2020, published 2024):
Where two headings read alike, the source gives them in different places.

Assays:
[1] = Lewis acidity measuring method (1): reaction rate constant of reaction between CoTPP and oxygen in the presence of a Lewis acid; format: physicochemical
From the text: Chem. Soc. […] Specifically, the Lewis acidity can be measured by the following “Lewis acidity measuring method (1)”, which is herein incorporated by reference.
As to acetonitrile (MeCN) that contains cobalt tetraphenylporphyrin, saturated O2, and an object whose Lewis acidity is to be measured (e.g., a cation of a metal or the like, represented by M^n+ in the following chemical reaction formula (1a)) in the following chemical reaction formula (1a), the change of the ultraviolet-visible absorption spectrum is measured at room temperature. On the basis of the obtained reaction rate constant (kcat), the ΔE value (eV), which is an indicator of the Lewis acidity, can be calculated. The higher the kcat, the stronger the Lewis acidity. Furthermore, the Lewis acidity of an organic compound can be estimated from the energy level of the lowest unoccupied molecular orbital (LUMO) calculated by the quantum chemical calculation. The higher the value at the positive side, the stronger the Lewis acidity.
In the following table, the numerical value expressed in the unit “kcat, M^−2s^−1” is a reaction rate constant of a reaction between CoTPP and oxygen in the presence of a Lewis acid. The numerical value expressed in the unit “LUMO, eV” is the energy level of LUMO.

[2] = test system: bacteria A (any one of Staphylococcus aureus, Escherichia coli MV1184, Streptococcus pyogenes, Streptcoccus mutans, Porphyromonas gingivalis, Treponema …); assay: Bactericidal action on bacteria A-containing material (Experimental Example 1); format: cell-based; conditions: chlorine dioxide generated by bringing ozone gas into contact with a radical source; cultured after contact

| Compound | kcat, reaction rate constant of reaction between CoTPP and oxygen in the presence of a Lewis acid [1] [M^−2 s^−1] | further results |
| --- | --- | --- |
| CC(C)(C)CC(C)(C)c1ccc(OCCOCC[N+](C)(C)Cc2ccccc2)cc1.[Cl-] [benzethonium chloride] | 0.24 |  |
| CCCC[N+](CCCC)(CCCC)CCCC.F[P-](F)(F)(F)(F)F [tetrabutylammonium hexafluorophosphate] | >0.1 |  |
| benzalkonium chloride |  | kcat, reaction rate constant of reaction between CoTPP and oxygen in the presence of a Lewis acid ([1]; acetonitrile, saturated O2, room temperature): 0.18 M^−2 s^−1 |
| [O][Cl+][O-] [chlorine dioxide] |  | bactericidal effect on bacteria A [2]: exhibits a bactericidal effect |
